Experimental data published in article PMC3608651, “A Broad Profile of Co-Dominant Epitopes Shapes the Peripheral Mycobacterium tuberculosis Specific CD8+ T-Cell Immune Response in South African Patients with Active Tuberculosis” (PLoS ONE, 2013).
Like-named read-outs stand apart in the source and are kept apart here.

Key:
Type in all cases: binding
HLA-A*02:01 = HLA-A*02:01 (Homo sapiens, UniProt P04439, D140Y/D185E/D98H/E176V/E277Q/G131W/G231S/I119V/I121R/I166T/I218V/L300P/L318F/N151K/N90K/P208A/P217A/Q86G/Q94H/R138H/R169H/T345S)
HLA-A*24:02 = HLA-A*24:02 (Homo sapiens, UniProt P04439, D101N/D140Y/D185E/E176V/E190D/F33S/G103R/G107R/I119L/I121M/I306V/K335N/L105A/L180Q/L300P/N151K/N90K/Q86E/Q94H/R106L/R138H/R89G/T104I/T345S/V100E/W191G/Y123F)
HLA-A*30:01 = HLA-A*30:01 (Homo sapiens, UniProt P04439, D140H/D185E/E176W/F33S/G80R/H175R/K168Q/R138E/R41S); settings: percent relative the binding of positive control peptide […]; duplicated experiments; positive binder >40%
HLA-A*30:02 = HLA-A*30:02 (Homo sapiens, UniProt P04439, D101N/D140H/D185E/E176R/F33S/G80R/H175R/K168Q/Q94H/R138E/R41S/V100E); settings: percent relative the binding of positive control peptide […]; duplicated experiments; positive binder >40%
HLA-A*68:01 = HLA-A*68:01 (Homo sapiens, UniProt P04439, A269V/D185E/E176V/E277Q/E87N/F33Y/G231S/I121M/I166T/I218V/L180W/L300P/L318F/N151K/P208A/P217A/Q86R/R169H/T345S); settings: percent relative the binding of positive control peptide […]; duplicated experiments; positive binder >40%
HLA-B*07:02 = HLA-B*07:02 (Homo sapiens, UniProt P01889); settings: percent relative the binding of positive control peptide […]; duplicated experiments; positive binder >40%
HLA-B*58:01 = HLA-B*58:01 (Homo sapiens, UniProt P01889, A329T/C349S/D201E/D98Y/E176V/E187L/E204Q/E69T/G107R/I218V/I90N/K202T/L105A/L119I/N104I/N87E/Q89R/Q94S/R106L/R155S/R180L/R86G/S101N/S121R/S35A/S48A/T118I/V127L/V306I/V36M/Y140S/Y91M); settings: percent relative the binding of positive control peptide […]; duplicated experiments; positive binder >40%
HLA-C*07:01 = HLA-C*07:01 (Homo sapiens, UniProt P10321, K90N/S123Y); settings: percent relative the binding of positive control peptide […]; duplicated experiments; positive binder >40%
[1] = percent relative the binding of positive control peptide […], plate-bound monomer 0.5 µg/ml, duplicated experiments, positive binder >40%
[2] = percent relative the binding of positive control peptide […], duplicated experiments, positive binder >40%

| Substance | Bind A*02:01 (HLA-A*02:01; [1]) [%] | Bind A*24:02 (HLA-A*24:02; [2]) [%] | Bind A*30:01 (HLA-A*30:01) [%] | Bind A*30:02 (HLA-A*30:02) [%] | Bind A*68:01 (HLA-A*68:01) [%] | Bind B*07:02 (HLA-B*07:02) [%] | Bind B*58:01 (HLA-B*58:01) [%] | Bind C*07:01 (HLA-C*07:01) [%] | Bind A*02:01 (HLA-A*02:01) | Bind A*24:02 (HLA-A*24:02) |
| --- | --- | --- | --- | --- | --- | --- | --- | --- | --- | --- |
| PQWLSANRA | 52 | 75 | 36 | 13 | 13 | 14 | 0 | 2 |  |  |
| FYSDW YSPA | 61 | 10 | 13 | 0 | 0 | 0 | 0 | 0 |  |  |
| DAYNAAGGH | 4 | 14 | 8 | 18 | 64 | 12 | 29 | 16 |  |  |
| YNAAGGHNA | 16 | 0 | 10 | 53 | 32 | 0 | 46 | 12 |  |  |
| YSDWYSPAC | 59 | 0 | 15 | 2 | 18 | 0 | 85 | 5 |  |  |
| LIGLAMGDA | 59 | 0 | 0 | 5 | 0 | 0 | 0 | 0 |  |  |
| FLTSELPQW | 75 | 117 | 0 | 3 | 5 | 8 | 71 | 0 |  |  |
| AMILAAYHP |  | 0 | 0 | 33 | 0 | 1 | 64 | 1 | 34 |  |
| PAFEW YYQS | 76 | 24 | 0 | 0 | 6 | 15 | 0 | 2 |  |  |
| LTSELPQW L | 56 | 9 | 0 | 19 | 0 | 7 | 34 | 2 |  |  |
| IVMPVGGQS | 44 | 0 | 0 | 56 | 0 | 51 | 0 | 0 |  |  |
| VYLLDGLRA | 86 | 87 | 0 | 98 | 13 | 0 | 0 | 9 |  |  |
| KPTGSAAIG | 0 | 0 | 0 | 0 | 0 | 51 | 0 | 0 |  |  |
| PSSDPAW ER | 1 | 0 | 0 | 0 | 53 | 10 | 2 | 18 |  |  |
| MGDAGGYKA | 45 | 0 | 0 | 0 | 9 | 0 | 0 | 0 |  |  |
| AGSSAMILA | 56 | 0 | 0 | 0 | 2 | 10 | 12 | 14 |  |  |
| LKFQDAYNA | 17 | 0 | 0 | 91 | 0 | 0 | 9 | 53 |  |  |
| GTPNELGGA | 49 | 0 | 0 | 0 | 0 | 0 | 0 | 0 |  |  |
| IPAEFLENF | 17 | 48 | 0 | 0 | 0 | 47 | 0 | 2 |  |  |
| GGNNSPAVY | 0 | 0 | 0 | 90 | 3 | 0 | 0 | 45 |  |  |
| ACGKAGCQT | 44 | 25 | 19 | 0 | 13 | 9 | 0 | 0 |  |  |
| LDPSQGMGP | 41 | 12 | 32 | 0 | 0 | 43 | 12 | 18 |  |  |
| NGW DINTPA | 87 | 36 | 8 | 0 | 4 | 21 | 0 | 14 |  |  |
| SQGMGPSLI | 50 | 55 | 11 | 0 | 0 | 2 | 11 | 22 |  |  |
| LAMGDAGGY | 10 | 0 | 0 | 74 | 56 | 2 | 39 | 0 |  |  |
| SGLSIVMPV | 95 | 0 | 0 | 38 | 0 | 0 | 0 | 0 |  |  |
| AVKPTGSAA | 10 |  | 0 | 7 | 0 | 82 | 0 | 0 |  | 0 |
| LLDGLRAQD | 63 | 0 | 8 | 140 | 16 | 0 | 0 | 0 |  |  |
| AQLNAMKGD | 10 | 29 | 0 | 56 | 0 | 0 | 0 | 3 |  |  |
